This is an account of results in ChEMBL document CHEMBL5724914, “Linking interpersonal differences in gut microbiota composition and drug biotransformation activity” (2024).

The conditions of data set [1]: human gut metagenome, 24 h, 2 µM.
Data set [2] in a line: The drug is tested on WLS-086 corresponding to human gut metagenome with ENA study accession number: PRJEB37062 and ENA sample accession number: ERS12561752 for biotransformation under anaerobic condition. The drug concentrations were measured over 9 timepoints collected between 0 and 24 hours of incubation by liquid-chromatography-coupled mass spectrometry (LC–MS). The conditions noted are these: 2 µM.

Data set [3] can be described thus: The drug is tested on Z-023 corresponding to metagenome with ENA study accession number: PRJEB37062 and ENA sample accession number: ERS12561822 for biotransformation under anaerobic condition. The drug concentrations were measured over 9 timepoints collected between 0 and 24 hours of incubation by liquid-chromatography-coupled mass spectrometry (LC–MS). The settings on record: 2 µM.

The nature of data set [4]: The drug is tested on WLS-090 corresponding to human gut metagenome with ENA study accession number: PRJEB37062 and ENA sample accession number: ERS12561753 for biotransformation under anaerobic condition. The drug concentrations were measured over 9 timepoints collected between 0 and 24 hours of incubation by liquid-chromatography-coupled mass spectrometry (LC–MS). The settings on record: 2 µM.

The nature of data set [5]: The drug is tested on Z-029 corresponding to rat gut metagenome with ENA study accession number: PRJEB37062 and ENA sample accession number: ERS12561828 for biotransformation under anaerobic condition. The drug concentrations were measured over 9 timepoints collected between 0 and 24 hours of incubation by liquid-chromatography-coupled mass spectrometry (LC–MS). The settings on record: 2 µM.

Data set [6] is described as follows: The drug is tested on Z-004 corresponding to metagenome with ENA study accession number: PRJEB37062 and ENA sample accession number: ERS12561804 for biotransformation under anaerobic condition. The drug concentrations were measured over 9 timepoints collected between 0 and 24 hours of incubation by liquid-chromatography-coupled mass spectrometry (LC–MS). The settings on record: 2 µM.

The conditions of data set [7]: human gut metagenome, 24 h, 2 µM. This is another data set of the same source.
Data set [8] is described as follows: The drug is tested on WLS-370 corresponding to human gut metagenome with ENA study accession number: PRJEB37062 and ENA sample accession number: ERS12561793 for biotransformation under anaerobic condition. The drug concentrations were measured over 9 timepoints collected between 0 and 24 hours of incubation by liquid-chromatography-coupled mass spectrometry (LC–MS). The conditions noted are these: 2 µM.

The conditions of data set [9]: human gut metagenome, 24 h, 2 µM. The source holds these as a separate data set.
Data set [10] can be described thus: The drug is tested on Z-011 corresponding to mouse gut metagenome with ENA study accession number: PRJEB37062 and ENA sample accession number: ERS12561811 for biotransformation under anaerobic condition. The drug concentrations were measured over 9 timepoints collected between 0 and 24 hours of incubation by liquid-chromatography-coupled mass spectrometry (LC–MS). The conditions noted are these: 2 µM.

Data set [11] is described as follows: The drug is tested on Z-030 corresponding to mouse gut metagenome with ENA study accession number: PRJEB37062 and ENA sample accession number: ERS12561829 for biotransformation under anaerobic condition. The drug concentrations were measured over 9 timepoints collected between 0 and 24 hours of incubation by liquid-chromatography-coupled mass spectrometry (LC–MS). The settings on record: 2 µM.

For data set [12] the following is noted: human gut metagenome, 24 h, 2 µM. This is another data set of the same source.
The conditions of data set [13]: human gut metagenome, 24 h, 2 µM. This is another data set of the same source.
For data set [14] the following is noted: human gut metagenome, 24 h, 2 µM. The source holds these as a separate data set.
For data set [15] the following is noted: human gut metagenome, 24 h, 2 µM. This is another data set of the same source.
For data set [16] the following is noted: human gut metagenome, 24 h, 2 µM. This is another data set of the same source.
The conditions of data set [17]: human gut metagenome, 24 h, 2 µM. This is another data set of the same source.
Data set [18] can be described thus: The drug is tested on Z-009 corresponding to pig gut metagenome with ENA study accession number: PRJEB37062 and ENA sample accession number: ERS12561809 for biotransformation under anaerobic condition. The drug concentrations were measured over 9 timepoints collected between 0 and 24 hours of incubation by liquid-chromatography-coupled mass spectrometry (LC–MS). The conditions noted are these: 2 µM.

For data set [19] the following is noted: human gut metagenome, 24 h, 2 µM. The source holds these as a separate data set.
The conditions of data set [20]: human gut metagenome, 24 h, 2 µM. The source holds these as a separate data set.
Also: call rule not given here.

For `CC(C)OC(=O)C(C)(C)Oc1ccc(C(=O)c2ccc(Cl)cc2)cc1` [FENOFIBRATE], the “Bacterial Biotransformation” value is reported as “Compound NOT metabolized” in [1]; “Compound metabolized” in [2]; “Compound metabolized” in data set [3]; “Compound metabolized” in [4]; “Compound NOT metabolized” in data set [5]; “Compound metabolized” in data set [6]. Moreover, the “Bacterial Biotransformation” value in [7] is “Compound NOT metabolized”; in data set [8] it was “Compound metabolized”; in data set [9] it was “Compound NOT metabolized”; in [10], “Compound metabolized”; in [11], “Compound metabolized”; in data set [12] it was “Compound NOT metabolized”. The “Bacterial Biotransformation” value in data set [13] is reported as “Compound NOT metabolized”; in data set [14], “Compound NOT metabolized”; in [15] it was “Compound NOT metabolized”; in data set [16] it was “Compound metabolized”; in data set [17], “Compound NOT metabolized”; in [18], “Compound metabolized”. The “Bacterial Biotransformation” value in data set [19] and in [20] was “Compound metabolized” each time.
As to `O=C1NCC2(CCN(CCc3ccccc3)CC2)O1` [FENSPIRIDE], the “Bacterial Biotransformation” value in data set [1] is given as “Compound NOT metabolized”; in [2], “Compound metabolized”; in data set [3], “Compound NOT metabolized”; in data set [4], “Compound NOT metabolized”; in [5], “Compound NOT metabolized”; in data set [6], “Compound NOT metabolized”. Also, the “Bacterial Biotransformation” value in data set [7], in data set [8], in data set [9], in [10], in data set [11] and in [12] was “Compound NOT metabolized” each time. Also, the “Bacterial Biotransformation” value in data set [13], in [14], in data set [15], in data set [16], in data set [17] and in data set [18] was “Compound NOT metabolized” each time. The “Bacterial Biotransformation” value in data set [19] is recorded as “Compound metabolized”; in data set [20], “Compound NOT metabolized”.
As for `OC(Cn1cncn1)(Cn1cncn1)c1ccc(F)cc1F` [FLUCONAZOLE], the “Bacterial Biotransformation” value in data set [1] is “Compound metabolized”; in data set [2], “Compound metabolized”; in data set [3] it was “Compound metabolized”; in data set [4], “Compound metabolized”; in [5], “Compound NOT metabolized”; in data set [6] it was “Compound NOT metabolized”. Further, the “Bacterial Biotransformation” value in data set [7] is reported as “Compound metabolized”; in data set [8], “Compound NOT metabolized”; in data set [9], “Compound metabolized”; in [10] it was “Compound NOT metabolized”; in data set [11], “Compound NOT metabolized”; in data set [12], “Compound NOT metabolized”. In addition, the “Bacterial Biotransformation” value in data set [13] is on record as “Compound metabolized”; in [14], “Compound NOT metabolized”; in data set [15], “Compound metabolized”; in [16], “Compound metabolized”; in data set [17] it was “Compound NOT metabolized”; in data set [18], “Compound NOT metabolized”. Moreover, the “Bacterial Biotransformation” value in data set [19] and in data set [20] was “Compound metabolized” each time.
For the molecule `CNCCC(Oc1ccc(C(F)(F)F)cc1)c1ccccc1` (stereo not given) [FLUOXETINE], the “Bacterial Biotransformation” value in data set [1], in data set [2], in data set [3], in [4], in data set [5] and in data set [6] was “Compound NOT metabolized” in each case. Further, the “Bacterial Biotransformation” value was “Compound NOT metabolized” in data set [7]; “Compound metabolized” in data set [8]; “Compound NOT metabolized” in [9]; “Compound NOT metabolized” in data set [10]; “Compound NOT metabolized” in data set [11]; “Compound NOT metabolized” in [12]. Moreover, the “Bacterial Biotransformation” value in data set [13] is listed as “Compound NOT metabolized”; in data set [14] it was “Compound NOT metabolized”; in data set [15], “Compound NOT metabolized”; in data set [16] it was “Compound metabolized”; in [17], “Compound NOT metabolized”; in [18] it was “Compound NOT metabolized”. Also, the “Bacterial Biotransformation” value in [19] and in [20] was “Compound NOT metabolized” each time.
Take `O=C(CCCN1CCC(O)(c2ccc(Cl)cc2)CC1)c1ccc(F)cc1` [HALOPERIDOL]: the “Bacterial Biotransformation” value in data set [1] is “Compound NOT metabolized”; in data set [2], “Compound metabolized”; in data set [3], “Compound metabolized”; in [4], “Compound metabolized”; in [5] it was “Compound NOT metabolized”; in data set [6] it was “Compound NOT metabolized”. Also, the “Bacterial Biotransformation” value in data set [7] was “Compound NOT metabolized”; in [8], “Compound NOT metabolized”; in data set [9], “Compound metabolized”; in [10] it was “Compound NOT metabolized”; in [11], “Compound NOT metabolized”; in [12], “Compound NOT metabolized”. For the same molecule, the “Bacterial Biotransformation” value in data set [13] was “Compound metabolized”; in [14] it was “Compound NOT metabolized”; in data set [15], “Compound NOT metabolized”; in data set [16], “Compound metabolized”; in [17] it was “Compound NOT metabolized”; in data set [18], “Compound metabolized”. Besides, the “Bacterial Biotransformation” value in data set [19] and in data set [20] was “Compound NOT metabolized” in each case.
On to `CCCCC1=NC2(CCCC2)C(=O)N1Cc1ccc(-c2ccccc2-c2nnn[nH]2)cc1` [IRBESARTAN], for which the “Bacterial Biotransformation” value in data set [1] is reported as “Compound metabolized”; in data set [2] it was “Compound metabolized”; in data set [3], “Compound metabolized”; in [4], “Compound metabolized”; in [5], “Compound NOT metabolized”; in data set [6], “Compound metabolized”. Moreover, the “Bacterial Biotransformation” value is on record as “Compound metabolized” in [7]; “Compound metabolized” in [8]; “Compound metabolized” in data set [9]; “Compound NOT metabolized” in [10]; “Compound NOT metabolized” in [11]; “Compound metabolized” in [12]. Moreover, the “Bacterial Biotransformation” value in data set [13], in [14], in data set [15], in data set [16], in data set [17] and in data set [18] was “Compound metabolized” each time. Besides, the “Bacterial Biotransformation” value in data set [19] and in [20] was “Compound metabolized” in each case.
